According to patent US7786109B2, “Tricyclic amide derivatives as modulators of H3 receptors” (Hoffmann-La Roche Inc., priority 2005, dated 2010):

Molecular target: T1, histamine 3 receptor (H3R) (Homo sapiens, UniProt Q9Y5N1)
T1 construct: expressed in transfected cells; host or cells: CHO cells (HR3-CHO cell line), membranes
Test: Binding assay with 3H-(R)α-methylhistamine (competition binding, membranes of the human HR3-CHO cell line)
Conditions: competition against 3H(R)α-Methylhistamine (1 nM), Ki calculated from IC50 by Cheng-Prusoff
Description: Binding assay with ^3H—(R)α-methylhistamine
Saturation binding experiments were performed using HR3-CHO membranes prepared as described in Takahashi, K, Tokita, S., Kotani, H. (2003) J. Pharmacol. Exp. Therapeutics 307, 213-218.
An appropriate amount of membrane (60 to 80 μg protein/well) was incubated with increasing concentrations of ^3H(R)α-Methylhistamine di-hydrochloride (0.10 to 10 nM). Non specific binding was determined using a 200 fold excess of cold (R)α-Methylhistamine dihydrobromide (500 nM final concentration). The incubation was carried out at room temperature (in deep-well plates shaking for three hours). The final volume in each well was 250 μl. The incubation was followed by rapid filtration on GF/B filters (pre-soaked with 100 μl of 0.5% PEI in Tris 50 mM shaking at 200 rpm for two hours). The filtration was made using a cell-harvester and the filter plates were then washed five times with ice cold washing buffer containing 0.5 M NaCl. After harvesting, the plates were dried at 55° C. for 60 min, then we added scintillation fluid (Microscint 40, 40 microl in each well) and the amount of radioactivity on the filter was determined in Packard top-counter after shaking the plates for two hours at 200 rpm at room temperature.
Binding Buffer: 50 mM Tris-HCl pH 7.4 and 5 mM MgCl2×6H2O pH 7.4. Washing Buffer: 50 mM Tris-HCl pH 7.4 and 5 mM MgCl2×6H2O and 0.5 M NaCl pH 7.4.
Indirect measurement of affinity of H3R inverse agonists: twelve increasing concentrations (ranging from 10 μM to 0.3 nM) of the selected compounds were always tested in competition binding experiments using membrane of the human HR3-CHO cell line. An appropriate amount of protein, e.g. approximately 500 cpm binding of RAMH at Kd, were incubated for 1 hour at room temperature in 250 μl final volume in 96-well plates in presence of ^3H(R)α-Methylhistamine (1 nM final concentration=Kd). […]
All compounds were tested at a single concentration in duplicates. […] Ki's were calculated from IC50 based on Cheng-Prusoff equation (Cheng, Y, Prusoff, W H (1973) Biochem Pharmacol 22, 3099-3108).

T1 sequence (Q9Y5N1 whole entry): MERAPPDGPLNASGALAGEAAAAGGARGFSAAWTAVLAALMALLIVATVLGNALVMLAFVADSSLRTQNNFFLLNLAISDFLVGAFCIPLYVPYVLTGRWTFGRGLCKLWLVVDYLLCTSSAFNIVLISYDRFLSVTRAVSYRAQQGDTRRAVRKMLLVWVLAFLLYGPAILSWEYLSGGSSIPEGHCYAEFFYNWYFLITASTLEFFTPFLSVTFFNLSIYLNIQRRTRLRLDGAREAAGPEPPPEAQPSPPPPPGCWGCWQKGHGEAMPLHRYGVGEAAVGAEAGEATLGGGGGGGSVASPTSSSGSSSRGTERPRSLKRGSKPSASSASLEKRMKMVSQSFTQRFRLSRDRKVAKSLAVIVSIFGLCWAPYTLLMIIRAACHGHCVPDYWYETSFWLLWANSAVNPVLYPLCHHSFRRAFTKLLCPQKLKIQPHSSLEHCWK

Ki [nM] | SMILES
28.8 | C[C@H]1CCCN1CCCOc1cnc2c(c1)cc1n2CCN(CC(F)(F)F)C1=O [Example 92, 7-[3-((S)-2-Methyl-pyrrolidin-1-yl)-propoxy]-2-(2,2,2-trifluoro-ethyl)-3,4-dihydro-2H-2,4a,5-triaza-fluoren-1-one]
6.5 | C[C@@H]1CCCN1CCCOc1ccc2c(c1)cc1n2CCNC1=O [Example 5, 8-[3-((R)-2-Methyl-pyrrolidin-1-yl)-propoxy]-3,4-dihydro-2H-pyrazino[1,2-a]indol-1-one]
17.1 | CC(C)N1CCC(Oc2ccc3c(c2)cc2n3CCCN(CC3CC3)C2=O)CC1 [Example 78, 2-Cyclopropylmethyl-9-(1-isopropyl-piperidin-4-yloxy)-2,3,4,5-tetrahydro-[1,4]diazepino[1,2-a]indol-1-one]
